# Literature values in patent US20080187998A1, “Sulfonamide-based oligomers and polymers for destabilization of biological membranes” (UNIVERSITY OF UTAH RESEARCH FOUNDATION, priority 2007, published 2008).
# Details: monomeric sulfonamide
row,SMILES,pKa
1,"COc1cc(NS(=O)(=O)c2ccc(N)cc2)nc(OC)n1 [SDM, sulfadimethoxine]",6.1
2,"Nc1ccc(S(=O)(=O)Nc2ncccn2)cc1 [SDZ, sulfadiazine]",6.4-6.5
3,"Cc1nnc(NS(=O)(=O)c2ccc(N)cc2)s1 [SMT, sulfamethizole]",5.45
4,Cc1ccnc(NS(=O)(=O)c2ccc(N)cc2)n1 [sulfamerazine],7.0
